Assay results as given in the supplement of paper PMC13380429.

Key:
[1] = test system: A549-ACE2; experiment: drug-induced phospholipidosis relative to tamoxifen; higher = more phospholipidosis
[2] = test system: A549-ACE2; experiment: phospholipidosis EC50; higher = less potent phospholipidosis inducer
[3] = test system: U2OS; experiment: cell viability relative to DMSO; higher = less toxic; conditions: 72 h
[4] = test system: HepG2; experiment: as above; conditions: 72 h
[5] = test system: Calu-3; experiment: as above; conditions: 72 h
[6] = test system: Caco-2; experiment: as above; conditions: 72 h
[7] = test system: Vero E6; experiment: as above; conditions: 72 h
[8] = test system: U2OS; experiment: drug sensitivity score (DSS) for viability; higher = more toxic; extreme values may be limits of the assay; conditions: 72 h
[9] = test system: HepG2; experiment: as above; conditions: 72 h
[10] = test system: Calu-3; experiment: as above; conditions: 72 h
[11] = test system: Caco-2; experiment: as above; conditions: 72 h
[12] = test system: Vero E6; experiment: as above; conditions: 72 h
[13] = test system: A549-ACE2 infected with SARS-CoV-2; experiment: SARS-CoV-2 infection rate relative to DMSO; higher = more infection; conditions: 24 h
[14] = test system: U2OS; experiment: relative viability EC50 (midpoint between 100% and the lowest measured viability); higher = less toxic; conditions: 72 h
[15] = test system: HepG2; experiment: as above; conditions: 72 h
[16] = test system: Vero E6; experiment: as above; conditions: 72 h
[17] = test system: A549-ACE2 infected with SARS-CoV-2; experiment: cell count relative to DMSO; higher = less toxic; conditions: 24 h
[18] = test system: A549-ACE2 infected with SARS-CoV-2; experiment: morphology score (similarity to uninfected cells); higher = more like uninfected cells; conditions: 24 h
[19] = test system: Calu-3; experiment: relative viability EC50 (midpoint between 100% and the lowest measured viability); higher = less toxic; conditions: 72 h

CCOc1cn(-c2ccc(F)cc2C)nc1C(=O)Nc1ccc(Oc2ccnc3cc(OC)c(OC)cc23)c(F)c1 [LDC1267]
drug-induced phospholipidosis [%], [1]
Conditions	0.3 µM	0.833333 µM	3.33333 µM	6.66667 µM	10 µM	30 µM
24 h	2.46	2.17	18.8	41.1	67	35
48 h	6.67	3.21	28.6	39.5	–	48.4
72 h	7.89	6.46	31.2	48.2	–	61.4

Conditions	SARS-CoV-2 infection rate [%]	cell count [%]	cell viability [%]	morphology score	phospholipidosis EC50 [µM]
[2], 24 h	–	–	–	–	3.79
[2], 72 h	–	–	–	–	3.79
[3], 1 nM	–	–	97.5	–	–
[3], 10 nM	–	–	101	–	–
[3], 100 nM	–	–	98.4	–	–
[3], 1000 nM	–	–	102	–	–
[3], 10000 nM	–	–	83.1	–	–
[4], 1 nM	–	–	106	–	–
[4], 10 nM	–	–	94.7	–	–
[4], 100 nM	–	–	99.9	–	–
[4], 1000 nM	–	–	88.5	–	–
[4], 10000 nM	–	–	76.2	–	–
[5], 1 nM	–	–	100	–	–
[5], 10 nM	–	–	99	–	–
[5], 100 nM	–	–	95.3	–	–
[5], 1000 nM	–	–	87.9	–	–
[5], 10000 nM	–	–	73	–	–
[6], 1 nM	–	–	95.3	–	–
[6], 10 nM	–	–	96.1	–	–
[6], 100 nM	–	–	94.7	–	–
[6], 1000 nM	–	–	91.9	–	–
[6], 10000 nM	–	–	68.7	–	–
[7], 1 nM	–	–	105	–	–
[7], 10 nM	–	–	103	–	–
[7], 100 nM	–	–	103	–	–
[7], 1000 nM	–	–	96.9	–	–
[7], 10000 nM	–	–	100	–	–
[13], 0.3 µM	91	–	–	–	–
[13], 3 µM	107	–	–	–	–
[13], 10 µM	90	–	–	–	–
[13], 30 µM	93	–	–	–	–
[17], 0.3 µM	–	102	–	–	–
[17], 3 µM	–	100	–	–	–
[17], 10 µM	–	91	–	–	–
[17], 30 µM	–	84	–	–	–
[18], 0.3 µM	–	–	–	0.33	–
[18], 3 µM	–	–	–	0.25	–
[18], 10 µM	–	–	–	0.23	–
[18], 30 µM	–	–	–	0.15	–

Conditions	drug sensitivity score	relative viability EC50 [µM]
[8]	0.3	–
[9]	2.2	–
[10]	2	–
[11]	2.4	–
[12]	0	–
[14]	–	> 10
[15]	–	> 10
[16]	–	> 10

CC(C)(Cc1ccc2ccccc2c1)NC[C@@H](O)COc1cccc(Cl)c1C#N [NPS-2143]
drug-induced phospholipidosis [%], [1]
Conditions	0.3 µM	0.833333 µM	3.33333 µM	6.66667 µM	10 µM	30 µM
24 h	14.7	30.2	98.4	140	135	14.7
48 h	8.59	25.2	96.8	135	132	–
72 h	10.7	13.3	94	135	133	–

Conditions	SARS-CoV-2 infection rate [%]	cell count [%]	cell viability [%]	morphology score	phospholipidosis EC50 [µM]
[2], 24 h	–	–	–	–	1.06
[2], 48 h	–	–	–	–	2.34
[2], 72 h	–	–	–	–	3.1
[3], 1 nM	–	–	100	–	–
[3], 10 nM	–	–	97.9	–	–
[3], 100 nM	–	–	105	–	–
[3], 1000 nM	–	–	96.1	–	–
[3], 10000 nM	–	–	39.1	–	–
[4], 1 nM	–	–	100	–	–
[4], 10 nM	–	–	104	–	–
[4], 100 nM	–	–	103	–	–
[4], 1000 nM	–	–	101	–	–
[4], 10000 nM	–	–	53.9	–	–
[5], 1 nM	–	–	89.4	–	–
[5], 10 nM	–	–	95.8	–	–
[5], 100 nM	–	–	96.7	–	–
[5], 1000 nM	–	–	103	–	–
[5], 10000 nM	–	–	0.6	–	–
[6], 1 nM	–	–	99.1	–	–
[6], 10 nM	–	–	101	–	–
[6], 100 nM	–	–	103	–	–
[6], 1000 nM	–	–	100	–	–
[6], 10000 nM	–	–	50.5	–	–
[7], 1 nM	–	–	93.1	–	–
[7], 10 nM	–	–	97.6	–	–
[7], 100 nM	–	–	93.5	–	–
[7], 1000 nM	–	–	99.6	–	–
[7], 10000 nM	–	–	84.4	–	–
[13], 0.3 µM	101	–	–	–	–
[13], 3 µM	23	–	–	–	–
[13], 10 µM	43	–	–	–	–
[17], 0.3 µM	–	100	–	–	–
[17], 3 µM	–	113	–	–	–
[17], 10 µM	–	68	–	–	–
[18], 0.3 µM	–	–	–	0.09	–
[18], 3 µM	–	–	–	0.87	–
[18], 10 µM	–	–	–	0.11	–

Conditions	drug sensitivity score	relative viability EC50 [µM]
[8]	3.9	–
[9]	2.3	–
[10]	5.3	–
[11]	2.6	–
[12]	0.3	–
[14]	–	2.65
[16]	–	> 10
[19]	–	3.32
